Measured values: US20230181598A1, “FORMULATIONS AND METHODS OF TREATING COVID-19 AND PREVENTING INFECTION WITH SARS-CoV-2” (priority 2020, published 2023)
≈ marks a conversion by molar mass, not a printed value. Where “and” joins values, the source holds several entries; their conditions need not be identical. Equal values may be shown once. Read-outs that look alike come from different tables or passages of the source.

How the values were obtained:
[1] = cited from earlier work
[2] = tested on: SARS-CoV-2 (strain USA-WA1/2020); assay: microbe, parasite or virus in culture; assay type: cell-based; details: for Average Log10 CCID50 virus per 0.2 mL: average of duplicate inserts; for Log10 Reduction in virus titer (CCID50) vs virus control / Log10 CCID50 virus per 0.2 mL: dNHBE cells
[3] = 0.1 μM, single insert, day 5 after infection

In the case of CCOC(=O)C1=C(COCCN)NC(C)=C(C(=O)OC)C1c1ccccc1Cl (racemic) [Amlodipine besylate, 3-Ethyl-5-methyl (±)-2-[(2-aminoethoxy)methyl]4-(2-chlorophenyl)-1,4-dihydro-6-methyl-3,5-pyridinedicarboxylate, monobenzenesulphonate], the solubility in ethanol ([1]; ethanol) is given as “sparingly soluble” and the solubility in water ([1]; water) is given as “slightly soluble”.

For CCOC(=O)C1=C(COCCN)NC(C)=C(C(=O)OC)C1c1ccccc1Cl (centres unmarked) [Amlodipine], the “Average Log10 CCID50 virus per 0.2 mL” value ([2]; 0.1 μM, day 5) was 3.6 Log10 CCID50 per 0.2 mL, the “Log10 Reduction in virus titer (CCID50) vs virus control” value (“Log10 Reduction in virus titer (CCID50)” for short) ([2]; 0.1 μM, day 5) was 0.7 Log10 and the “Log10 Reduction in virus titer (CCID50)” value ([2]; 0.1 μM, day 5, listed as amlodipine) was ~1 Log10. For the same molecule, the “Log10 CCID50 virus per 0.2 mL” value [2, 3] was 3.7 Log10 CCID50 per 0.2 mL and 3.5 Log10 CCID50 per 0.2 mL.

For CC#C[C@]1(O)CC[C@H]2[C@@H]3CCC4=CC(=O)CCC4=C3[C@@H](c3ccc(N(C)C)cc3)C[C@@]21C [Mifepristone, 11β-(4-dimethylaminophenyl)-17β-hydroxy-17α-(1-propynyl)-estra-4,9-dien-3-one], the solubility ([1]; acidic media, pH 1.5) is listed as ~25 mg/mL (≈ 58.2 mM), the solubility ([1]; pH values above 2.5) is listed as “less than 1 mg/mL” and the “Average Log10 CCID50 virus per 0.2 mL” value ([2]; 5 μM, day 5) is listed as 3.5 Log10 CCID50 per 0.2 mL. For the same molecule, the “Log10 Reduction in virus titer (CCID50)” value ([2]; 5 μM, day 5) was 0.8 Log10 and the “Log10 Reduction in virus titer (CCID50)” value ([2]; 5 μM, day 5, listed as mifepristone) was ~1 Log10.

For CCC(CC)COC(=O)[C@H](C)N[P@](=O)(OC[C@H]1O[C@@](C#N)(c2ccc3c(N)ncnn23)[C@H](O)[C@@H]1O)Oc1ccccc1 [Remdesivir], the “Log10 CCID50 virus per 0.2 mL” value ([2]; 0.001 μM, day 5) was 4.0 Log10 CCID50 per 0.2 mL, the “Log10 CCID50 virus per 0.2 mL” value ([2]; 0.01 μM, day 5) was 3.3 Log10 CCID50 per 0.2 mL and the “Log10 CCID50 virus per 0.2 mL” value [2, 3] was 2.7 Log10 CCID50 per 0.2 mL. For the same molecule, the “Log10 CCID50 virus per 0.2 mL” value ([2]; 1.0 μM, day 5) was 2.0 Log10 CCID50 per 0.2 mL, the EC90 ([2]; Severe acute respiratory syndrome coronavirus 2, Vero 76) was 9 nM and the EC90 ([2]; Severe acute respiratory syndrome coronavirus 2, Vero 76, 120 h, read-out: EC90 (concentration to reduce virus yield by 1 log10, regression analysis) (converted)) was 9 nM.
